Results as given in patent publication US8114882B2, “(1H-indol-7-yl)-(pyrimidin-2-ylamino)methanone derivatives and related compounds as IGF-R1 inhibitors for the treatment of cancer” (Merck Patent GmbH, priority 2005, dated 2012).
pIC50: −log10 of the molar value.

Biological target: T1, IGF-1R (Homo sapiens, UniProt P08069)
T1 construct: Cultivated human tumour cells which express the IGF1 receptor (IGF1R); endogenous in cells
Experiment: Inhibition of IGF-1R (IC50): IGF1-stimulated IGF1R autophosphorylation in human tumour cells, Capture-ELISA or LUMINEX
Type: cell-based
Conditions: Table 1; human tumour cells expressing IGF1R (for example MCF-7 or Calu-6), 45 min pre-treatment, 5 min IGF1 stimulation
Method: Cultivated human tumour cells which express the IGF1 receptor (IGF1R) (for example MCF-7 or Calu-6) are stimulated using human IGF1, the natural ligand of IGF1R. The stimulation induces autophosphorylation of tyrosine residues in the cytoplasmatic IGF1R domain, which triggers signal transduction cascades, which result in apoptosis inhibition and cell proliferation.
The amount of phosphorylated IGF1R is determined by a receptor-specific Capture-ELISA or an analogous LUMINEX assay. The IGF1R from cell lysates is bound to a 96-well ELISA plate or LUMINEX beads (“capturing”) by means of a specific antibody, and the tyrosine phosphorylation is detected using a biotin-labelled anti-phosphotyrosine antibody and a streptavidin peroxidase conjugate by a chemoluminescence method or by means of a fluorescence-labelled anti-phosphotyrosine antibody.
In order to determine the activity of kinase inhibitors, cells are pre-treated with increasing concentrations of these compounds for 45 min and subsequently stimulated using IGF1 for 5 min. As internal control, the biological activity of the ligand IGF1 is checked and a concentration series of an IGF1R reference inhibitor measured.

T1 sequence (P08069 31-1367): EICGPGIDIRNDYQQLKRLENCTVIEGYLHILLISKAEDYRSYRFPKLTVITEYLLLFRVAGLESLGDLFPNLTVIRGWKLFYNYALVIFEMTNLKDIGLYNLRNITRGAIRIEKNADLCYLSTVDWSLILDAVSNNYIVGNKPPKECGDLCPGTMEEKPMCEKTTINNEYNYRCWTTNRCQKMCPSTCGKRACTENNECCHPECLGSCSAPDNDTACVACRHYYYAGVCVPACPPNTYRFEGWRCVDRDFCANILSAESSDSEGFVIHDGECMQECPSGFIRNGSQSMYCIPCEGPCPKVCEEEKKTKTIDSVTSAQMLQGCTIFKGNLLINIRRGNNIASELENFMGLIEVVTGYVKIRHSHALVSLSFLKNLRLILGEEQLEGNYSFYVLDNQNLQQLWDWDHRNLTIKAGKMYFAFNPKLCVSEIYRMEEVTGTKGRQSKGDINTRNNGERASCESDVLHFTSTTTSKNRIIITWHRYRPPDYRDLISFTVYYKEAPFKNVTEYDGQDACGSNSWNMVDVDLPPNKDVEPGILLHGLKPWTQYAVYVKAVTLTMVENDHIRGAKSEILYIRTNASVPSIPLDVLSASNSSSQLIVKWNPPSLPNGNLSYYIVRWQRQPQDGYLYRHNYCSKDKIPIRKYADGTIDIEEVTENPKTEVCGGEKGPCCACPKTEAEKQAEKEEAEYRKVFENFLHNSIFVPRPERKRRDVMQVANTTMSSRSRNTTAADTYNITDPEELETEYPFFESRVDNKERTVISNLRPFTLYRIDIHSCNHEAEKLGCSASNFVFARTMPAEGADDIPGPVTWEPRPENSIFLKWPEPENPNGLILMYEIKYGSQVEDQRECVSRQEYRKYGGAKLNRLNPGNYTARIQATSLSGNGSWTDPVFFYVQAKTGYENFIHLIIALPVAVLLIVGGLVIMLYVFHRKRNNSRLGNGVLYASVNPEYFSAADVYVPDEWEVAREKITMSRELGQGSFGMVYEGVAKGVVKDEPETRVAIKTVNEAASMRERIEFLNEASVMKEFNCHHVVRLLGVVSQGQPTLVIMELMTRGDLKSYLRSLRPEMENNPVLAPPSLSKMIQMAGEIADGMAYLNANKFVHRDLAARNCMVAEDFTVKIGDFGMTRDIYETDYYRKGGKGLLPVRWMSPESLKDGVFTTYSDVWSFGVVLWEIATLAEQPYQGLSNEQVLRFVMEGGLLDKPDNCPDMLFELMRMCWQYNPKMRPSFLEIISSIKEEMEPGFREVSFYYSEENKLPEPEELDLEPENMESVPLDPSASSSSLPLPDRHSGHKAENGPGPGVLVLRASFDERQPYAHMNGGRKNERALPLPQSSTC

SMILES	pIC50
O=C(c1ccc(Nc2ccnc(Cl)n2)cc1)c1cccc2cc[nH]c12	5.59
O=C(c1ccc(Nc2ccnc(Cl)n2)cc1)c1cccc2c1NCC2	5.11
O=C(c1ccc(Nc2nccc(NCc3cccnc3)n2)cc1)c1cccc2c1NCC2	5.62
COc1cc(Nc2nccc(Nc3ccc(C(=O)c4cccc5cc[nH]c45)cc3)n2)cc(OC)c1OC	5.66
O=C(c1ccc(Nc2ccnc(Nc3ccc(C(=O)c4cccc5cc[nH]c45)cc3)n2)cc1)c1cccc2cc[nH]c12	5.74
N#Cc1c[nH]c2c(C(=O)c3ccc(Nc4ccnc(Nc5ccc(C(=O)c6cccc7c(C#N)c[nH]c67)cc5)n4)cc3)cccc12	6.31
N#CCCNc1nccc(Nc2ccc(C(=O)c3cccc4cc[nH]c34)cc2)n1	5.51
O=C(c1ccc(Nc2ccnc(NCC3CC(O)C3)n2)cc1)c1cccc2cc[nH]c12 (stereo not drawn)	5.92
O=C(c1ccc(Nc2ccnc(Nc3ncc[nH]3)n2)cc1)c1cccc2cc[nH]c12	6.82
O=C(c1c[nH]nc1Nc1nccc(Nc2cnc3ccccc3c2)n1)c1cccc2cc[nH]c12	6.20
O=C(c1ccc(Nc2ccnc(Nc3cc(-c4ccccc4)[nH]n3)n2)cc1)c1cccc2cc[nH]c12	5.00
Cc1cc(Nc2nccc(Nc3ccc(C(=O)c4cccc5cc[nH]c45)cc3)n2)n[nH]1	5.54
O=C(c1ccc(Nc2ccnc(Nc3cc(-c4ccco4)[nH]n3)n2)cc1)c1cccc2cc[nH]c12	4.82
CC(C)(C)c1cc(Nc2nccc(Nc3ccc(C(=O)c4cccc5cc[nH]c45)cc3)n2)n[nH]1	4.92
O=C(c1ccc(Nc2ccnc(Nc3cc[nH]n3)n2)cc1)c1cccc2cc[nH]c12	5.62
